From patent publication US20100222328A1, “2-CYCLOPROPYL-THIAZOLE DERIVATIVES” (priority 2007, published 2010)
pIC50: −log10 of the molar value. Read-outs that look alike come from different tables or passages of the source.

Columns and labels:
human orexin-1 receptor = biological target: T1, human orexin-1 receptor (Homo sapiens, UniProt O43613); test: Intracellular calcium measurements (FLIPR), CHO cells expressing the human orexin-1 receptor, orexin-A as agonist; format: cell-based; details: 3 nM orexin-A, read-out: OX1 IC50
T1 construct: expressed in transfected cells; host or cells: CHO cells (grown under G418 selection)
T1 sequence (O43613 1-425): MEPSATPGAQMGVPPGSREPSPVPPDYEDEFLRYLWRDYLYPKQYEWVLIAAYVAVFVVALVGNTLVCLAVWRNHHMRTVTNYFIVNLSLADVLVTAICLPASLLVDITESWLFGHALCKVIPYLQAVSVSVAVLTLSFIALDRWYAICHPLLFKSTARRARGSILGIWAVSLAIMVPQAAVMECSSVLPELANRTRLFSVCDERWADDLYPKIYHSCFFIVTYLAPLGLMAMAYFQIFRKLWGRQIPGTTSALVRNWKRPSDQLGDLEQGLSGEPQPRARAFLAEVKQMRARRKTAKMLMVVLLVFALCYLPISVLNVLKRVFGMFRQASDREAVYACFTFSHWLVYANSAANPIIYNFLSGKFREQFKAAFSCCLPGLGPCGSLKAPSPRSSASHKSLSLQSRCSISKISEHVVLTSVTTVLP
Description: (§1) The orexin receptor antagonistic activity of the compounds of formula (I) is determined in accordance with the following experimental method.
(§2) Chinese hamster ovary (CHO) cells expressing the human orexin-1 receptor and the human orexin-2 receptor, respectively, are grown in culture medium (Ham F-12 with L-Glutamine) containing 300 μg/ml G418, 100 U/ml penicillin, 100 μg/ml streptomycin and 10% heat inactivated fetal calf serum (FCS). The cells are seeded at 20′000 cells/well into 384-well black clear bottom sterile plates (Greiner). The seeded plates are incubated overnight at 37° C. in 5% CO2.
(§3) Human orexin-A as an agonist is prepared as 1 mM stock solution in MeOH: water (1:1), diluted in HBSS containing 0.1% bovine serum albumin (BSA), NaHCO3: 0.375g/l and 20 mM HEPES for use in the assay at a final concentration of 3 nM.
(§4) Antagonists are prepared as 10 mM stock solution in DMSO, then diluted in 384-well plates using DMSO followed by a transfer of the dilutions into in HBSS containing 0.1% bovine serum albumin (BSA), NaHCO3: 0.375 g/l and 20 mM HEPES. On the day of the assay, 50 μl of staining buffer (HBSS containing 1% FCS, 20 mM HEPES, NaHCO3: 0.375 g/l, 5 mM probenecid (Sigma) and 3 μM of the fluorescent calcium indicator fluo-4 AM (1 mM stock solution in DMSO, containing 10% pluronic) is added to each well. The 384-well cell-plates are incubated for 50 min at 37° C. in 5% CO2 followed by equilibration at rt for 30-120 min before measurement.
(§5) Within the Fluorescent Imaging Plate Reader (FLIPR2 or FLIPR Tetra, Molecular Devices), antagonists are added to the plate in a volume of 10 μl/well, incubated for 10 min and finally 10 μl/well of agonist is added. Fluorescence is measured for each well at 1 second intervals, and the height of each fluorescence peak is compared to the height of the fluorescence peak induced by 3 nM orexin-A with vehicle in place of antagonist. For each antagonist, the IC50 value (the concentration of compound needed to inhibit 50% of the agonistic response) is determined. The calculated IC50 values of the compounds may fluctuate depending on the daily cellular assay performance. Fluctuations of this kind are known to those skilled in the art.

human orexin-2 receptor = biological target: T2, human orexin-2 receptor (Homo sapiens, UniProt O43614); test: Intracellular calcium measurements (FLIPR), CHO cells expressing the human orexin-2 receptor, orexin-A as agonist; format: cell-based; details: 3 nM orexin-A, read-out: OX2 IC50
T2 construct: expressed in transfected cells; host or cells: CHO cells (grown under G418 selection)
T2 sequence (O43614 1-444): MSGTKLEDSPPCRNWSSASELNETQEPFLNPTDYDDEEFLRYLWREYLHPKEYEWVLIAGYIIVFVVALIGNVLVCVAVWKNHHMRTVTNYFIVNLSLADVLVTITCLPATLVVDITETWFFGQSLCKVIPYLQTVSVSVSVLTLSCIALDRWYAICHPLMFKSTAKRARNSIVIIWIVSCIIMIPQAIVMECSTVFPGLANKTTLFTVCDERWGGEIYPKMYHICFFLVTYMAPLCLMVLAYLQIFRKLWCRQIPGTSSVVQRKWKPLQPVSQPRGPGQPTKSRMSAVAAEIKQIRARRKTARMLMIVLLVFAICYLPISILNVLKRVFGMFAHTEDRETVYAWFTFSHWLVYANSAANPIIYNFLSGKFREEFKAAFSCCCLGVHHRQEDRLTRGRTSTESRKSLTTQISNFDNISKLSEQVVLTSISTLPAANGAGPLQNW
Description: as §1, §2, §3, §4, §5

SMILES | pIC50 (human orexin-1 receptor; measured on FLIPR2) | pIC50 (human orexin-2 receptor; measured on FLIPR2) | pIC50 (human orexin-1 receptor; measured on FLIPR Tetra) | pIC50 (human orexin-2 receptor; measured on FLIPR Tetra)
Cc1nc2sccn2c1C(=O)NC[C@@H]1CCCCN1C(=O)c1nc(C2CC2)sc1-c1ccccc1F [Example 10, (S)-6-Methyl-imidazo[2,1-b]thiazole-5-carboxylic acid {1-[2-cyclopropyl-5-(2-fluoro-phenyl)-thiazole-4-carbonyl]-piperidin-2-ylmethyl}-amide] | 8.74 | 8.52 |  | 
Cc1cccc(C(=O)NC[C@@H]2CCCCN2C(=O)c2nc(C3CC3)sc2-c2ccccc2F)c1 [Example 1, (S)—N-{1-[2-Cyclopropyl-5-(2-fluoro-phenyl)-thiazole-4-carbonyl]-piperidin-2-ylmethyl}-3-methyl-benzamide] | 7.72 | 7.80 |  | 
O=C(NC[C@@H]1CCCCN1C(=O)c1nc(C2CC2)sc1-c1cccc(Cl)c1)c1noc2ccccc12 [Example 68, (S)-Benzo[d]isoxazole-3-carboxylic acid {1-[5-(3-chloro-phenyl)-2-cyclopropyl-thiazole-4-carbonyl]-piperidin-2-ylmethyl}-amide] | 7.72 | 7.96 |  | 
Cc1ccc(-c2sc(C3CC3)nc2C(=O)N2CCCC[C@H]2CNC(=O)c2c(C)nc3sccn23)cc1 [Example 31, (S)-6-Methyl-imidazo[2,1-b]thiazole-5-carboxylic acid [1-(2-cyclopropyl-5-p-tolyl-thiazole-4-carbonyl)-piperidin-2-ylmethyl]-amide] | 8.66 | 8.07 |  | 
O=C(NC[C@@H]1CCCCN1C(=O)c1nc(C2CC2)sc1-c1ccccc1F)c1cccc2cccnc12 [Example 5, (S)-Quinoline-8-carboxylic acid {1-[2-cyclopropyl-5-(2-fluoro-phenyl)-thiazole-4-carbonyl]-piperidin-2-ylmethyl}-amide] | 8.29 | 8.11 |  | 
Cc1cccc(-c2sc(C3CC3)nc2C(=O)N2CCCC[C@H]2CNC(=O)c2cc3occc3n2C)c1 [Example 51, (S)-4-Methyl-4H-furo[3,2-b]pyrrole-5-carboxylic acid [1-(2-cyclopropyl-5-m-tolyl-thiazole-4-carbonyl)-piperidin-2-ylmethyl]-amide] | 7.60 | 7.82 |  | 

The remaining lines, values ahead:

pIC50 (human orexin-1 receptor; measured on FLIPR2) | pIC50 (human orexin-2 receptor; measured on FLIPR2) | pIC50 (human orexin-1 receptor; measured on FLIPR Tetra) | pIC50 (human orexin-2 receptor; measured on FLIPR Tetra) | SMILES
 |  | 7.74 | 7.66 | Cc1cccc(-c2sc(C3CC3)nc2C(=O)N2CCCC[C@H]2CNC(=O)c2cccc3c2CCO3)c1 [Example 107, (S)-2,3-Dihydro-benzofuran-4-carboxylic acid [1-(2-cyclopropyl-5-m-tolyl-thiazole-4-carbonyl)-piperidin-2-ylmethyl]-amide]
8.14 | 7.59 |  |  | O=C(NC[C@@H]1CCCCN1C(=O)c1nc(C2CC2)sc1-c1cccc(C(F)(F)F)c1)c1cccc(Br)c1 [Example 71, (S)-3-Bromo-N-{1-[2-cyclopropyl-5-(3-trifluoromethyl-phenyl)-thiazole-4-carbonyl]-piperidin-2-ylmethyl}-benzamide]
7.64 | 7.82 |  |  | O=C(NC[C@@H]1CCCN1C(=O)c1nc(C2CC2)sc1-c1ccc(F)cc1)c1cccc2occc12 [Example 88, (S)-Benzofuran-4-carboxylic acid {1-[2-cyclopropyl-5-(4-fluoro-phenyl)-thiazole-4-carbonyl]-pyrrolidin-2-ylmethyl}-amide]
 |  | 8.44 | 8.35 | O=C(NC[C@@H]1CCCCN1C(=O)c1nc(C2CC2)sc1-c1ccccc1)c1cnc2sccn12 [Example 96, (S)-Imidazo[2,1-b]thiazole-5-carboxylic acid [1-(2-cyclopropyl-5-phenyl-thiazole-4-carbonyl)-piperidin-2-ylmethyl]-amide]
 |  | 6.91 | 7.77 | Cn1c(C(=O)NC[C@@H]2CCCCN2C(=O)c2nc(C3CC3)sc2-c2ccccc2)cc2occc21 [Example 131, (S)-4-Methyl-4H-furo[3,2-b]pyrrole-5-carboxylic acid [1-(2-cyclopropyl-5-phenyl-thiazole-4-carbonyl)-piperidin-2-ylmethyl]-amide]
 |  | 7.85 | 7.70 | Cn1nc(C(=O)NC[C@@H]2CCCCN2C(=O)c2nc(C3CC3)sc2-c2ccccc2)c2ccccc21 [Example 100, (S)-1-Methyl-1H-indazole-3-carboxylic acid [1-(2-cyclopropyl-5-phenyl-thiazole-4-carbonyl)-piperidin-2-ylmethyl]-amide]
 |  | 7.82 | 7.72 | Cc1cccc(-c2sc(C3CC3)nc2C(=O)N2CCCC[C@H]2CNC(=O)c2cccc(F)c2C)c1 [Example 114, (S)—N-[1-(2-Cyclopropyl-5-m-tolyl-thiazole-4-carbonyl)-piperidin-2-ylmethyl]-3-fluoro-2-methyl-benzamide]
